Test results as given in paper PMC10065791 (eLife, 2023).

Legend:
wild-type NL4-3 protease = target: T1, wild-type NL4-3 protease (Human immunodeficiency virus type 1 group M subtype B, UniProt P12497, Q495K); experiment: Ki assay (FRET enzyme inhibition), wild-type protease; type: biochemical, HIV-1; details: limit of detection 5 pM, read-out: Ki WT
T1 construct: the gene encoding the desired HIV-1 protease was subcloned into the heat-inducible pXC35 expression vector; made in house
Experimental: (§1) The highly mutated, resistant, protease variant genes were purchased on a pET11a plasmid with codon optimization for protein expression in Escherichia coli (Genewiz). A Q7K mutation was included to prevent autoproteolysis ([Rosé et al., 1993]). The expression, isolation, and purification of WT and mutant HIV-1 proteases used for enzymatic assays were carried out as previously described ([Henes et al., 2019]; [King et al., 2002]; [Özen et al., 2014]). Briefly, the gene encoding the desired HIV-1 protease was subcloned into the heat-inducible pXC35 expression vector (ATCC) and transformed into E. coli TAP-106 cells. Cells grown in 6 l of Terrific Broth were lysed with a cell disruptor twice, and the protein was purified from inclusion bodies ([Hui et al., 1993]). Inclusion bodies, isolated as a pellet after centrifugation, were dissolved in 50% acetic acid followed by another round of centrifugation at 19,000 rpm for 30 min to remove insoluble impurities. Size-exclusion chromatography was carried out on a 2.1 l Sephadex G-75 Superfine (Sigma Chemical) column equilibrated with 50% acetic acid to separate high molecular weight proteins from the desired protease. Pure fractions of HIV-1 protease were refolded using a tenfold dilution of refolding buffer (0.05 M sodium acetate at pH 5.5, 5% ethylene glycol, 10% glycerol, and 5 µM DTT). Folded protein was concentrated to 0.5–3 mg/ml and stored. The stored protease was used in KM and Ki assays.
(§2) Enzyme inhibition constants (Ki values) were determined as previously described ([Henes et al., 2019]; [Lockbaum et al., 2019]; [Matayoshi et al., 1990]; [Windsor and Raines, 2015]). Briefly, in a 96-well plate, inhibitors were serially diluted down from […] depending on protease resistance. All samples were incubated with 5 nM protein for 1 hr. A 10-amino acid substrate containing an optimized protease cleavage site ([Windsor and Raines, 2015]), purchased from Bachem, with an EDANS/DABCYL FRET pair was dissolved in 4% DMSO at 120 µM. Using a PerkinElmer Envision plate reader, 5 µl of the 120 µM substrate were added to the 96-well plate to a final concentration of 10 µM. […] Data was analyzed with Prism7.

I84V mutant protease = target: T2, I84V mutant protease (Human immunodeficiency virus type 1 group M subtype B, UniProt P12497, I572V/Q495K); experiment: Ki assay (FRET enzyme inhibition), I84V protease; type: biochemical, HIV-1; details: I84V drug-resistant protease variant
T2 construct: the gene encoding the desired HIV-1 protease was subcloned into the heat-inducible pXC35 expression vector; made in house
Experimental: as §1, §2

[1] = target: T3, I50V/A71V mutant protease (Human immunodeficiency virus type 1 group M subtype B, UniProt P12497, A559V/I538V/Q495K); experiment: Ki assay (FRET enzyme inhibition), I50V/A71V protease; type: biochemical, HIV-1; details: I50V/A71V drug-resistant protease variant
T3 construct: the gene encoding the desired HIV-1 protease was subcloned into the heat-inducible pXC35 expression vector; made in house
Experimental: as §1, §2

[2] = tested on: virus pool selected to 5000 nM inhibitor; experiment: TZM infection assay, inhibitor-selected resistant virus pools; type: cell-based, HIV-1; details: Human immunodeficiency virus 1, read-out: EC50 Viral culture (5000 nM); final virus pool selected with the same inhibitor to 5000 nM; highest level recorded 100 µM
Experimental: In addition to the sequence of the terminally selected virus, we validated that selection occurred over the entire course of the selection protocol. […] In comparing the number of mutations present in cultures using the I84V versus the I50V pathway, we noted that on average there were more mutations in the I50V viruses at the intermediate drug concentration compared to the I84V viruses (100 nM, p=0.03), and this trend continued at the higher drug concentration.
An aliquot of 3 × 10^6 CEMx174 cells was incubated at 37°C for 2–3 hr with 250 µl of a virus stock generated from the HIV-1 infectious molecular clone pNL4-3. The culture volume was then brought to 10 ml with RPMI medium. […] After 48 hr and every 48 hr after, the cells were pelleted by centrifugation and 10 ml of fresh medium and inhibitors were added. When the culture had undergone extensive cytopathic effect (CPE) indicative of viral replication, the supernatant medium and the cells were harvested separately and stored at –80°C. The virus-containing supernatant was used to start the next round of infection, and after several rounds at the initial concentration, the inhibitor concentration was increased 1.5-fold at each subsequent round of virus passage.
PI dilutions were prepared by taking 10 µM stocked and performing a fivefold serial dilution using RPMI media (final drug concentration is […]). One dilution of drug was added to each well of a 24-well plate and repeated so each virus would have a full set of dilutions. Viruses for the assay were made by seeding 3 × 10^6 CEM cells in a 24-well plate and incubating with 250 µl of virus at 37°C for 2–3 hr before bringing the culture to 10 ml with RPMI media. After 48 hr, the medium was changed and repeated every 48 hr after until the culture had undergone CPE. Infected CEM cells were collected and diluted so that 1 ml of cells could be plated in each well containing a unique drug dilution. Then 24 hr later the virus supernatant was collected from each well followed by filtering through a […] then placed in –80°C. Viruses were thawed and added to 96-well plates in triplicate. TZM-bl cells were collected and diluted to a concentration of 2 × 10^5 cells/ml, 100 µl were added on top of the pre-plated viruses. Plates were kept in 37°C, 5% CO2 in an incubator for 48 hr. After 48 hr, the cells in the plates were lysed by removing the medium, washing two times with 100 µl PBS, and then lysed with 1× lysis buffer (made from 5× Promega Firefly Lysis Buffer). Plates were frozen for at least 24 hr and then thawed for 2 hr before analyzing with Promega Firefly Luciferase Kit on a luminometer. Data was analyzed with Prism 7 to fit sigmoidal dose–response curves.

Structure (SMILES)	Ki (wild-type NL4-3 protease)	Ki (I84V mutant protease)	Ki [1]	EC50 [2]
CC[C@H](C)CN(C[C@@H](O)[C@H](Cc1ccccc1)NC(=O)O[C@H]1CO[C@H]2OCC[C@H]21)S(=O)(=O)c1ccc(CO)cc1 [UMASS-3]	< 0.005 nM	0.0099 ± 0.0027 nM	0.0799 ± 0.0059 nM	14800 nM
CC[C@H](C)CN(C[C@@H](O)[C@H](Cc1ccccc1)NC(=O)O[C@H]1CO[C@H]2OCC[C@H]21)S(=O)(=O)c1ccc2c(c1)OCO2 [UMASS-4]	< 0.005 nM	0.0105 ± 0.0018 nM	0.0329 ± 0.003 nM	13700 nM
CC[C@H](C)CN(C[C@@H](O)[C@H](Cc1ccccc1)NC(=O)O[C@H]1CO[C@H]2OCC[C@H]21)S(=O)(=O)c1ccc2ncsc2c1 [UMASS-5]	< 0.005 nM	0.007 ± 0.0017 nM	0.0078 ± 0.0009 nM	> 100000 nM
CCC(CC)CN(C[C@@H](O)[C@H](Cc1ccccc1)NC(=O)O[C@H]1CO[C@H]2OCC[C@H]21)S(=O)(=O)c1ccc(OC)cc1 [UMASS-7]	< 0.005 nM	0.0121 ± 0.0045 nM	0.0182 ± 0.003 nM	
CCC(CC)CN(C[C@@H](O)[C@H](Cc1ccccc1)NC(=O)O[C@H]1CO[C@H]2OCC[C@H]21)S(=O)(=O)c1ccc2c(c1)OCO2 [UMASS-9]	< 0.005 nM	0.0076 ± 0.0016 nM	0.0423 ± 0.0026 nM	> 100000 nM
